Data published in patent US8658661B2, “Oxadiazole inhibitors of leukotriene production” (Boehringer Ingelheim International GmbH, priority 2010, dated 2014).
pIC50: −log10 of the molar value.

Legend:
[1] = target: T1, recombinant human FLAP protein (Homo sapiens, UniProt P20292); assay: FLAP binding assay (SPA, displacement of [125I]L-691,831); conditions: for pIC50: membranes of sf9 cells expressing recombinant human FLAP, [125I]L-691,831 probe, read-out: FLAP binding IC50
T1 construct: made in house; host or cells: Sf9 insect cells (100,000×g membrane pellet used)
T1 sequence (P20292 1-161): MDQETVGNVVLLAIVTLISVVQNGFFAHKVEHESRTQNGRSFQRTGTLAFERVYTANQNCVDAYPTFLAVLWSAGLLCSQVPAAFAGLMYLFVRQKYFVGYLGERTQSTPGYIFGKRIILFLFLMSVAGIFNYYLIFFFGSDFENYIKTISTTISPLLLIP
Protocol: Assessment of Biological Properties 1. Binding Assay
Compounds are assessed for the ability to bind to FLAP in a binding assay that measures compound-specific displacement of an iodinated (^125I) FLAP inhibitor via a Scintillation Proximity Assay format (adapted from S. Charleson et al., Mol. Pharmacol., 1992, 41, 873-879).
Cell pellets produced from sf9 insect cells expressing recombinant human FLAP protein are resuspended in buffer A [15 mM Tris-HCl (pH 7.5), 2 mM MgCl2, 0.3 mM EDTA, 1 mM PMSF]. The cells are lysed with a Dounce homogenizer and the material is centrifuged at 10,000×g for 10 minutes. The supernatant is then collected and centrifuged at 100,000×g for 60 minutes. To prepare membrane protein for an assay, an aliquot of the 100,000×g pellet is resuspended in 1 ml of buffer A, Dounce homogenized, and finally subjected to polytron mixing (30 seconds). Membrane protein (25 μl, 5 μg) is mixed with WGA SPA beads (Amersham) and stirred for 1 h. […] (final concentrations: beads, 200 μg/well; protein, 5 μg/well; [^125I] probe, 0 08 nM/well (17 nCi/well). The plates are shaken for 2 h before reading on a Microbeta plate reader. Non-specific binding is determined by the addition of 10 μM cold L-691,831 compound.

[2] = test system: synthesis of LTB4 in human whole blood; assay: Human whole blood assay (inhibition of LTB4 synthesis, calcimycin stimulated); type: cell-based; conditions: heparinized human whole blood, calcimycin 20 μM, plasma LTB4
Protocol: Compounds are additionally tested in a human whole blood assay to determine their ability to inhibit the synthesis of LTB4 in a cellular system. Compounds are combined with heparinized human whole blood and incubated for 15 minutes at 37° C. Calcimycin (20 μM final, prepared in phosphate-buffered saline, pH 7.4) is then added and the mixture is incubated for another 30 minutes at 37° C. The samples are centrifuged for 5 min at low speed (1500×g) and the plasma layer is removed. Plasma LTB4 concentrations are then measured using an antibody-based homogenous time-resolved fluorescence method (CisBio, Bedford, Mass.).

In the case of `CC(C)C(C)(c1ccc(-c2cnc(N)nc2)cc1)c1noc(-c2ccn(C)n2)n1` (stereo not shown) [Example 14, 5-(4-{3-methyl-2-[5-(1-methyl-1H-pyrazol-3-yl)-1,2,4-oxadiazol-3-yl]butan-2-yl}phenyl)pyrimidin-2-amine], the pIC50 [1] was 8.34 and the pIC50 [2] was 6.85.
With `Cc1cc(-c2ccc([C@](C)(c3noc(-c4cnn(CC(C)(C)O)c4)n3)C3CC3)cc2)cnc1N` [Example 179, 1-[4-(3-{(R)-1-[4-(6-Amino-5-methyl-pyridin-3-yl)-phenyl]-1-cyclopropyl-ethyl}-[1,2,4]oxadiazol-5-yl)-pyrazol-1-yl]-2-methyl-propan-2-ol] the pIC50 [1] was 8.34 and the pIC50 [2] was 7.31.
`CN(C)C(=O)Cn1cc(-c2nc([C@@](C)(c3ccc(-c4cnc(N)nc4)cc3)C3CC3)no2)cn1` (single isomer, unassigned) [Example 115] gave a pIC50 [1] of 8.72 and a pIC50 [2] of 7.24.
Work on `CC(C)C(C)(c1ccc(-c2cnc(N)nc2)cc1)c1noc(-c2ccn[nH]2)n1` (stereo not shown) [Example 19, 5-(4-{3-methyl-2-[5-(1H-pyrazol-5-yl)-1,2,4-oxadiazol-3-yl]butan-2-yl}phenyl)pyrimidin-2-amine] yielded a pIC50 [1] of 8.24 and a pIC50 [2] of 6.59.
With `C[C@](c1ccc(-c2cnc(N)nc2)cc1)(c1noc(-c2cnn(C3COC3)c2)n1)C1CCC1` [Example 103, 5-{4-[(1S)-1-cyclobutyl-1-{5-[1-(oxetan-3-yl)-1H-pyrazol-4-yl]-1,2,4-oxadiazol-3-yl}ethyl]phenyl}pyrimidin-2-amine] the pIC50 [1] was 6.89 and the pIC50 [2] was 5.57.
Work on `CC(C)Nc1ncc(-c2ccc([C@](C)(c3noc(-c4cnn(CC(=O)N(C)C)c4)n3)C3CC3)cc2)cn1` [Example 279, 2-[4-(3-{(R)-1-Cyclopropyl-1-[4-(2-isopropylamino-pyrimidin-5-yl)-phenyl]-ethyl}-[1,2,4]oxadiazol-5-yl)-pyrazol-1-yl]-N,N-dimethyl-acetamide] yielded a pIC50 [1] of 7.12 and a pIC50 [2] of less than 5.30.
Work on `Cn1cc(-c2nc([C@@](C)(c3ccc(-c4cnc(N)nc4)cc3)C3CCC3)no2)cn1` [Example 121, 5-(4-{(1R)-1-cyclobutyl-1-[5-(1-methyl-1H-pyrazol-4-yl)-1,2,4-oxadiazol-3-yl]ethyl}phenyl)pyrimidin-2-amine] yielded a pIC50 [1] of 8.59 and a pIC50 [2] of 7.04.
Compound `CC(C)C(C)(c1ccc(-c2cnc(N)nc2)cc1)c1noc(-c2ccc(C#N)nc2)n1` (stereo not shown) [Example 128, 5-(3-{2-[4-(2-aminopyrimidin-5-yl)phenyl]-3-methylbutan-2-yl}-1,2,4-oxadiazol-5-yl)pyridine-2-carbonitrile] has a pIC50 [1] of 8.80 and a pIC50 [2] of 6.62.
Work on `Cn1cc(-c2nc(C(C)(c3ccc(-c4cnc5[nH]ccc5c4)cc3)C3CC3)no2)cn1` (stereo not shown) [Example 253, 5-(4-{1-Cyclopropyl-1-[5-(1-methyl-1H-pyrazol-4-yl)-[1,2,4]oxadiazol-3-yl]-ethyl}-phenyl)-1H-pyrrolo[2,3-b]pyridine] yielded a pIC50 [1] of 8.42 and a pIC50 [2] of 6.92.
With `CC(C)C(C)(c1ccc(-c2cnc(N)nc2)cc1)c1noc(O)n1` (stereo not shown) [Example 88, 3-{1-[4-(2-Amino-pyrimidin-5-yl)-phenyl]-1,2-dimethyl-propyl}-[1,2,4]oxadiazol-5-ol] the inhibition at 1 µM ([1]; at 1000 nM, read-out: FLAP binding % inh @ 1000 nM) was 51% and the pIC50 [2] was less than 5.30.
Compound `Cn1cc(-c2nc([C@@H](c3ccc(-c4cnc(N)nc4)cc3)C(C)(C)C)no2)cn1` [Example 65, 5-(4-{(1R)-2,2-dimethyl-1-[5-(1-methyl-1H-pyrazol-4-yl)-1,2,4-oxadiazol-3-yl]propyl}phenyl)pyrimidin-2-amine] has a pIC50 [1] of 7.12 and a pIC50 [2] of 5.82.
Work on `CC(c1ccc(-c2cnc(N)nc2)cc1)(c1noc(-c2ccc(NCCS(C)(=O)=O)nc2)n1)C1CC1` (stereo not shown) [Example 41, 5-(4-{1-cyclopropyl-1-[5-(6-{[2-(methylsulfonyl)ethyl]amino}pyridin-3-yl)-1,2,4-oxadiazol-3-yl]ethyl}phenyl)pyrimidin-2-amine] yielded a pIC50 [1] of 8.66 and a pIC50 [2] of 6.77.
In the case of `CC(C)C(C)(c1ccc(-c2cnc(N)nc2)cc1)c1noc(N2CCC(C(C)(C)O)CC2)n1` (stereo not shown) [Example 198, 2-[1-(3-{1-[4-(2-Amino-pyrimidin-5-yl)-phenyl]-1,2-dimethyl-propyl}-[1,2,4]oxadiazol-5-yl)-piperidin-4-yl]-prop an-2-ol], the pIC50 [1] was 8.12 and the pIC50 [2] was 6.55.
`CC(C)C(C)(c1ccc(-c2cnc(N)nc2)cc1)c1noc(N2C3CCC2CC(O)C3)n1` (stereo not shown) [Example 235, 8-(3-{1-[4-(2-Amino-pyrimidin-5-yl)-phenyl]-1,2-dimethyl-propyl}-[1,2,4]oxadiazol-5-yl)-8-aza-bicyclo[3.2.1]octan-3-ol] showed a pIC50 [1] of 7.54 and a pIC50 [2] of 6.11.
`CC(C)(O)Cn1cc(-c2nc(C(C)(C)c3ccc(-c4cnc(N)nc4)cc3)no2)cn1` [Example 75, 1-[4-(3-{2-[4-(2-aminopyrimidin-5-yl)phenyl]propan-2-yl}-1,2,4-oxadiazol-5-yl)-1H-pyrazol-1-yl]-2-methylpropan-2-ol] gave a pIC50 [1] of 7.64 and a pIC50 [2] of 6.59.
In the case of `CC(C)C(C)(c1ccc(-c2cnc(N)nc2)cc1)c1noc(-c2cnc(=O)[nH]c2)n1` (stereo not shown) [Example 154, 5-(3-{2-[4-(2-aminopyrimidin-5-yl)phenyl]-3-methylbutan-2-yl}-1,2,4-oxadiazol-5-yl)pyrimidin-2(1H)-one], the pIC50 [1] was 8.48.
With `CC(c1ccc(-c2cnc(N)nc2)cc1)(c1noc(N2CCC(O)CC2)n1)C1CC1` (stereo not shown) [Example 205, 1-(3-{1-[4-(2-Amino-pyrimidin-5-yl)-phenyl]-1-cyclopropyl-ethyl}-[1,2,4]oxadiazol-5-yl)-piperidin-4-ol] the pIC50 [2] was 7.17.
Compound `CC(C)C(C)(c1ccc(-c2cnc(N)nc2)cc1)c1noc(C2CC2)n1` (stereo not shown) [Example 156, 5-{4-[2-(5-cyclopropyl-1,2,4-oxadiazol-3-yl)-3-methylbutan-2-yl]phenyl}pyrimidin-2-amine] has a pIC50 [1] of 7.82.
With `CC(C)C(C)(c1ccc(-c2cnc(N)nc2)cc1)c1noc(-c2nccs2)n1` (stereo not shown) [Example 139, 5-(4-{3-methyl-2-[5-(1,3-thiazol-2-yl)-1,2,4-oxadiazol-3-yl]butan-2-yl}phenyl)pyrimidin-2-amine] the pIC50 [1] was 8.36.
Work on `CC(C)[C@@](C)(c1ccc(-c2cnc(N)nc2)cc1)c1noc(N2CCC(O)CC2)n1` (single isomer, unassigned) [Example 224] yielded a pIC50 [2] of 6.12.
Work on `COc1cncc(-c2ccc(C(C)(c3noc(-c4cnccn4)n3)C(C)C)cc2)c1` (stereo not shown) [Example 1, 2-(3-{2-[4-(5-methoxypyridin-3-yl)phenyl]-3-methylbutan-2-yl}-1,2,4-oxadiazol-5-yl)pyrazine] yielded a pIC50 [1] of 7.24.
Compound `COc1ncccc1-c1nc(C(C)(c2ccc(-c3cnc(N)nc3)cc2)C(C)C)no1` (stereo not shown) [Example 10, 5-(4-{2-[5-(2-methoxypyridin-3-yl)-1,2,4-oxadiazol-3-yl]-3-methylbutan-2-yl}phenyl)pyrimidin-2-amine] has a pIC50 [1] of 8.37.
`CC(C)[C@@](C)(c1ccc(-c2cnc(N)nc2)cc1)c1noc(N2CCC(C)(O)CC2)n1` [Example 228, 1-(3-{(S)-1-[4-(2-Amino-pyrimidin-5-yl)-phenyl]-1,2-dimethyl-propyl}-[1,2,4]oxadiazol-5-yl)-4-methyl-piperidin-4-ol] showed a pIC50 [2] of 6.26.
`C[C@](c1ccc(-c2cnc(N)nc2)cc1)(c1noc(N2CCC(O)CC2)n1)C1CC1` [Example 234, 1-(3-{(S)-1-[4-(2-Amino-pyrimidin-5-yl)-phenyl]-1-cyclopropyl-ethyl}-[1,2,4]oxadiazol-5-yl)-piperidin-4-ol] was tested, and the pIC50 [2] was 6.00.
`CC(C)C(C)(c1ccc(-c2cnc(N)nc2)cc1)c1noc(N2CCC(C)(O)CC2)n1` (stereo not shown) [Example 216, 1-(3-{1-[4-(2-Amino-pyrimidin-5-yl)-phenyl]-1,2-dimethyl-propyl}-[1,2,4]oxadiazol-5-yl)-4-methyl-piperidin-4-ol] gave a pIC50 [2] of 7.47.
In the case of `CC(C)C(C)(c1ccc(-c2cnc(N)nc2)cc1)c1noc(N2CCC(O)CC2)n1` (stereo not shown) [Example 262, 1-(3-{1-[4-(2-Amino-pyrimidin-5-yl)-phenyl]-1,2-dimethyl-propyl}-[1,2,4]oxadiazol-5-yl)-piperidin-4-ol], the pIC50 [2] was 7.08.
With `CC(C)C(C)(c1ccc(-c2cnc(N)nc2)cc1)c1noc(-c2ccccc2S(C)(=O)=O)n1` (stereo not shown) [Example 149, 5-[4-(3-methyl-2-{5-[2-(methylsulfonyl)phenyl]-1,2,4-oxadiazol-3-yl}butan-2-yl)phenyl]pyrimidin-2-amine] the pIC50 [1] was 7.24.
Compound `Cc1csc(-c2nc(C(C)(c3ccc(-c4cnc(N)nc4)cc3)C(C)C)no2)n1` (stereo not shown) [Example 131, 5-(4-{3-methyl-2-[5-(4-methyl-1,3-thiazol-2-yl)-1,2,4-oxadiazol-3-yl]butan-2-yl}phenyl)pyrimidin-2-amine] has a pIC50 [1] of 8.06.
